73 compounds from PubChem BioAssay AID179 (DTP/NCI, 2004) can be followed below.

The structures appear in SMILES notation. The source made the active and inactive calls.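 The calls were made as follows: active = compounds giving half or more protection of infected cells from virus-caused growth loss, again on retest; inactive = the rest.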

This assay deals with CEM cells HIV-1 protection, formazan growth assay. Kind of assay: NCI AIDS Antiviral Assay. The settings on record: for IC50: measured here: growth of uninfected CEM cells. The essentials:
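Steps: treat uninfected and HIV-1-infected human CEM cells at five drug levels; quantify growth by soluble formazan; retest any compound reaching 50% protection; classify actives from the retest.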

What is called EC50 is the midpoint of the concentration-response curve. Usually IC50 stands for the concentration at which inhibition is half-maximal. As for `COc1ccc(/C=N/NC(N)=O)cc1`, the EC50 was greater than 186 µM and the IC50 is greater than 186 µM. In the case of `Nc1nc(=S)c2c(ncn2CC(O)CO)[nH]1` (stereo not given), the EC50 was 363 µM and the IC50 was 525 µM. The corresponding values for `OC(C#CCN1CCCC1)(c1ccccc1)c1ccc(Cl)cc1.[C-]#[O+].[C-]#[O+].[C-]#[O+].[C-]#[O+].[C-]#[O+].[C-]#[O+].[Co].[Co]` (stereo not given) are greater than 200 µM and 5.62 µM. Turning to `COC(=O)/C=C/C(=N/Nc1ccccc1)c1ccccc1`, the EC50 is greater than 200 µM and the IC50 came to 28.8 µM.

`COC(=O)c1c(-c2ccccc2)sc(-c2cccc3ccccc23)c1C(=O)OC`: the result was inactive. With `CCOC(=O)NNC(=O)NCc1ccccc1CNC(=O)NNC(=O)OCC`, the EC50 is greater than 200 µM and the IC50 is greater than 200 µM. `CC(=O)OCC1OC(n2c(=S)[nH]c(-c3ccccc3)c(C#N)c2=O)C(OC(C)=O)C(OC(C)=O)C1OC(C)=O` (stereo not given): the EC50 is greater than 200 µM and the IC50 was 170 µM.

Consider `C=CCOC(=O)CC[N+]1=CCC(c2ccccc2)(c2ccccc2)O1`, for which the EC50 is greater than 29.5 µM and the IC50 was greater than 29.5 µM. Take `CN(C)CCNc1ccc2c(=O)n(CCN(C)C)c(=O)n3c4ccc(O)cc4c(=O)c1c23`: the EC50 was greater than 0.2 µM and the IC50 was determined as 0.0107 µM. Turning to `CC(=O)OC1CC2CCC1(C)C2(C)C` (stereo not given), the EC50 is greater than 200 µM and the 50% inhibitory concentration (IC50) is greater than 200 µM. On to `COC1=CC(=O)c2nc(C)ccc2C1=O`, for which the result was inactive. For the compound `COc1cc2c(cc1OCc1ccccc1)CNCC2`, the EC50 was greater than 794 µM and the half-inhibitory concentration (IC50) was 145 µM. The corresponding values for `CC1=NNC(N)=N/C1=C\C(Sc1ccc(Cl)cc1)c1ccc(Cl)cc1Cl` (stereo not given) are greater than 112 µM and 18.6 µM.

With `Cc1ccccc1C(C#N)C(=O)C(=O)Nc1nc([N+](=O)[O-])cs1` (stereo not given), the EC50 is greater than 7.94 µM and the IC50 is greater than 7.94 µM. Consider `COc1cc(N=Nc2ccccc2)cc(/C=N\[N-]C(N)=S)c1[O-].COc1cc(N=Nc2ccccc2)cc(/C=N\[N-]C(N)=S)c1[O-].[Fe+4]`, for which the EC50 is greater than 26.3 µM and the IC50 is greater than 26.3 µM. As to `COc1cc2c3c([nH]c2c(OC)c1OC)CCN(Cc1ccccc1)C3`, the EC50 is greater than 200 µM and the IC50 came to 66.1 µM. The corresponding values for `O=C(COc1ccc(OCC(=O)N2C(=O)CN(c3ccc(Cl)cc3)C2=S)cc1)N1C(=O)CN(c2ccc(Cl)cc2)C1=S` are greater than 200 µM and 43.7 µM. `Cc1ccc(/C=C2\CCC/C(=C\c3ccc(O)c(CN4CCCCC4)c3)C2=O)cc1`: the EC50 is greater than 100 µM. Regarding `CN1Cc2ccccc2C2(COc3ccccc3C2=O)C1` (stereo not given), the outcome was inactive. Turning to `CC1(C)CCc2cc3c(cc2O1)OCCC3=O`, the outcome was inactive. With `C/C(=N\Nc1ccc([N+](=O)[O-])cc1[N+](=O)[O-])c1ccc2ccccc2n1`, the EC50 is 182 µM and the half-inhibitory concentration (IC50) was greater than 200 µM. Regarding `CCCCCCCCCCCCCCCCNC(=O)/C(=C\c1ccc(Cl)c(Cl)c1)NC(=O)c1ccccc1`, the EC50 was greater than 100 µM and the IC50 was determined as 20 µM.

As for `COC(=O)/C(C#N)=C1\NC(=O)CC(c2ccccc2)C1C#N` (stereo not given), the EC50 is greater than 200 µM and the IC50 worked out at 57.5 µM. For the compound `Nc1nnc2c(n1)[nH]c1ccccc12`, the EC50 is greater than 74.1 µM and the IC50 was greater than 74.1 µM. In the case of `N#CC(=Nc1ccccc1N(C(=O)c1ccccc1)C(=O)c1ccccc1)c1ccccc1`, the EC50 was greater than 17 µM and the IC50 is greater than 17 µM. Consider `CCOC(=O)c1ccc(-n2cnc(-c3ccc([N+](=O)[O-])cc3)c2)cc1`, for which the half-maximal effective concentration (EC50) was 95.5 µM and the IC50 is greater than 200 µM. Regarding `CC(C)CC(C[C@@H](O)[C@H](Cc1ccccc1)NC(=O)O[C@H]1CCOC1)S(=O)(=O)c1ccccc1` (stereo not given in full), the EC50 was 38.9 µM and the IC50 came out at 112 µM. In the case of `CC(C)N(C(C)C)P1O[PH+](N(C(C)C)C(C)C)OP(N(C(C)C)C(C)C)O[PH+](N(C(C)C)C(C)C)O1.[C-]#[O+].[C-]#[O+].[C-]#[O+].[C-]#[O+].[W]` (stereo not given), the EC50 was greater than 200 µM and the IC50 was greater than 200 µM. `Cc1ccc2ccc(-c3ccccc3)c3c2c1C(=O)c1ccccc1C3=O`: the result was inactive. For `COc1cc([C@@H]2c3cc(O)c(OC)cc3C=C(C(N)=O)[C@H]2C(N)=O)ccc1O`, the EC50 is greater than 0.2 µM and the IC50 came out at 0.0102 µM. Regarding `COc1ccc(-c2sc(N)c(C#N)c2C)cc1OC`, the outcome was inactive. Turning to `COc1ccccc1C(=O)c1c(NCc2ccccc2)c(=O)c1=O`, the EC50 is greater than 200 µM and the IC50 came out at 93.3 µM.

Consider `O=C(N/N=C/c1ccccc1O)c1ccccc1Nc1ccccc1C(=O)N/N=C/c1ccccc1O`, for which the EC50 was greater than 42.7 µM and the IC50 is 1.82 µM. For `CC1(C)CN(C(=O)OCc2ccccc2)[C@@H]2N1C(=O)[C@@]2(C)OCCCO[C@]1(C)C(=O)N2[C@H]1N(C(=O)OCc1ccccc1)CC2(C)C`, in that order: greater than 200 µM and greater than 200 µM.

Regarding `Nc1nc2c(C(=O)c3cccs3)nnn2c2cccc(Cl)c12`, the EC50 is greater than 11.5 µM and the IC50 is greater than 11.5 µM. With `COc1ccc(Cc2nc3ccccc3[nH]2)cc1OC`, the EC50 is greater than 200 µM and the IC50 stood at 89.1 µM. For `Cc1nc2c(nc1C)C(=O)C1=C(C2=O)C2C=CC1CC2`, in that order: greater than 70.8 µM and 1.62 µM. The corresponding values for `Cn1nc(-c2ccccc2)c(C(=O)/C=C/c2ccc(F)cc2)c(N2CCOCC2)c1=O` are greater than 87.1 µM and greater than 87.1 µM. Turning to `COC(=O)C(C)Oc1ccc(O)cc1` (stereo not given), the EC50 was greater than 1260 µM and the IC50 is greater than 1260 µM. Turning to `CN(C)C(=O)c1ccc(N=Nc2c(O)c3ccccc3[nH]c2=O)cc1`, the EC50 is greater than 200 µM and the half-maximal inhibitory concentration (IC50) turned out to be 36.3 µM.

Consider `CCN(CC)CC1CCCCN1CC(=O)N1CC(C)C(=O)Nc2ccccc21` (stereo not given), for which the EC50 was 34.7 µM and the IC50 was found to be 251 µM.

`Cc1ccc(C(=O)Nc2ccc(CP(=O)(O)O)cc2)cc1NC(=O)c1cccc(N)c1`: the EC50 is greater than 200 µM and the IC50 is greater than 200 µM.

In the case of `COC(=O)C1=C(C(=O)OC)C2C3CC4C(C13)C42`, the EC50 is greater than 200 µM and the IC50 is greater than 200 µM.

As to `CCOC(=O)c1cc(Br)c(-c2cc(C)co2)[nH]1`, the EC50 is greater than 200 µM and the IC50 is greater than 200 µM. On to `COc1ccc(NC2=NCCO2)c2ccccc12`, for which the EC50 is greater than 200 µM and the IC50 stood at 46.8 µM. The corresponding values for `COc1cccc(C2c3cc4c(cc3OC(N3CCCC3)C2C)OCO4)c1` (stereo not given) are greater than 200 µM and 3.8 µM. For `NS(=O)(=O)c1nnc(NC(=O)Nc2ccc(Cl)c(Cl)c2)s1`, the EC50 was greater than 200 µM and the IC50 is 26.3 µM. For `O=C(ON=c1c2ccccc2ccc2ccccc12)c1ccccc1`, in that order: greater than 200 µM and 33.9 µM. For `COc1cc2c(ccc3c4cc(OC)c(OC)cc4c[n+](C)c23)cc1O`, in that order: greater than 324 µM and 1.48 µM. For `COC(=O)C(=O)C(C(C)=O)C(=O)NCc1ccccc1` (stereo not given), in that order: 47.9 µM and 67.6 µM. On to `NC12CC3CC(C1)CC(C(=O)O)(C3)C2`, for which the EC50 was greater than 1070 µM and the IC50 was greater than 1070 µM. For the compound `O=C(O)C12CCCCC1CCCC2` (stereo not given), the EC50 is greater than 372 µM and the IC50 was greater than 372 µM. With `O/N=C1/CCCc2nonc21`, the EC50 was greater than 200 µM and the IC50 is greater than 200 µM. In the case of `O=[N+]([O-])C1C2C=CC(C2)[C@H]1c1ccc(Cl)cc1Cl` (stereo not given in full), the outcome was inactive.

Consider `CCCCn1c2ccccc2c2ccc3c(c21)C(=O)C=CC3=O`, for which the EC50 is greater than 17.4 µM and the IC50 is greater than 17.4 µM. In the case of `CCOC(=O)c1cc2sc(NC(=O)c3ccccc3)nc2o1`, the outcome was inactive. Take `O=C1C[C@@H]2[C@@H](CCC23CCCC3)N1`: the outcome was inactive. As for `COc1c2c(cc3c1OCO3)C13C=CC(OC)CC1N(CC3)C2` (stereo not given), the EC50 is greater than 200 µM and the IC50 is greater than 200 µM. For the compound `O=C(O)c1ccccc1/C=N\N(CCO)C1=NCCN1`, the EC50 is greater than 200 µM and the IC50 is greater than 200 µM.

For `COC(=O)C(=O)C(C(=O)C(=O)Nc1ccccc1C(C)=O)c1nc2ccc(C(=O)c3ccccc3)cc2[nH]c1=O` (stereo not given), the EC50 was greater than 93.3 µM and the IC50 was found to be 55 µM. Turning to `Clc1ccc(CN2COc3c(cc(Cl)c4cccnc34)C2)cc1Cl`, the EC50 is greater than 200 µM and the IC50 was determined as 1.07 µM. For `CCOC(=O)C(C)Sc1nnc(COc2ccccc2OC)n1-c1ccccc1` (stereo not given), the EC50 was greater than 200 µM and the IC50 came out at 162 µM. The corresponding values for `C/C(O)=C(\N=O)C(=O)NCCc1ccccc1` are greater than 288 µM and greater than 288 µM. For `CN(C)C(=N)OCc1ccccc1`, in that order: greater than 200 µM and greater than 200 µM. For `Cc1nccn1Cc1c(N)nc(N)[nH]c1=O`, in that order: greater than 200 µM and greater than 200 µM. In the case of `CC1CC(C)c2c(O)c3c(c(O)c2N1)C(=O)c1ccccc1C3=O` (stereo not given), the EC50 is greater than 16.2 µM and the IC50 was found to be 8.71 µM. The corresponding values for `CCOC(=O)CCC(NC(=O)c1ccc(Nc2nc3cc(C(F)(F)F)ccc3nc2C(=O)OCC)cc1)C(=O)OCC` (stereo not given) are greater than 191 µM and 4.57 µM. For `COc1cccc(NC(=O)CC(=O)N2N=C(N(CCC#N)c3ccc(Cl)cc3)CC2c2ccccc2)c1` (stereo not given), the EC50 is greater than 69.2 µM and the IC50 was greater than 69.2 µM.

Take `CCOC(=O)c1ccc[c]([Sb](=[O])([OH])[OH])c1`: the half-maximal effective concentration (EC50) was 4.9 µM and the IC50 was determined as 398 µM. For the compound `COc1ccc(N=N/C(=N/NC(=O)c2ccccc2)c2ccc(N(CCC#N)CCC#N)cc2C)cc1`, the EC50 is greater than 200 µM and the IC50 came out at 11.5 µM. Regarding `COC(CNC(=O)CNC(=O)c1ccc(C(F)(F)F)cc1)OC`, the result was inactive.

For `CC1(c2ccc(Cl)cc2)OCC(CCl)O1` (stereo not given), the EC50 was greater than 200 µM and the IC50 is greater than 200 µM. Take `C=C1CC(c2ccc(OCCCN3C(=O)c4ccccc4C3=O)cc2)OC1=O` (stereo not given): the EC50 was greater than 20 µM and the IC50 was 1.7 µM.
